From PubChem BioAssay (NCI)
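The concentration for 50% growth inhibition is given as GI50. TGI marks complete inhibition of growth.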

Tests used:
Assay in all cases: NCI tumour cell line growth inhibition, 384-well format
[1] = tested on: SNB-75 CNS
[2] = tested on: TK-10 renal
[3] = tested on: UO-31 renal
[4] = tested on: SK-MEL-28 melanoma
[5] = tested on: UACC-257 melanoma
[6] = tested on: SK-MEL-2 melanoma
[7] = tested on: HOP-92 NSCLC
[8] = tested on: NCI-H522 lung
[9] = tested on: MDA-MB-435 melanoma
[10] = tested on: A549 NSCLC
[11] = tested on: EKVX NSCLC
[12] = tested on: MDA-MB-468 breast
[13] = tested on: HL-60(TB) leukemia
[14] = tested on: K-562 leukemia
[15] = tested on: DU-145 prostate
[16] = tested on: OVCAR-3 ovarian
[17] = tested on: SF-295 CNS
[18] = tested on: CCRF-CEM leukemia
[19] = tested on: NCI-H460 NSCLC
[20] = tested on: CAKI-1 renal
[21] = tested on: MOLT-4 leukemia
[22] = tested on: SNB-19 CNS
[23] = tested on: HCC-2998 colon
[24] = tested on: NCI-H226 lung
[25] = tested on: OVCAR-5 ovarian
[26] = tested on: SF-268 CNS
[27] = tested on: NCI/ADR-RES ovarian
[28] = tested on: HT29 colon
[29] = tested on: ACHN renal
[30] = tested on: SK-OV-3 ovarian
[31] = tested on: NCI-H23 lung
[32] = tested on: SF-539 CNS
[33] = tested on: HCT-116 colon
[34] = tested on: MALME-3M melanoma
[35] = tested on: UACC-62 melanoma
[36] = tested on: RXF 393 renal
[37] = tested on: HCT-15 colon
[38] = tested on: 786-0 renal
[39] = tested on: SW-620 colon
[40] = tested on: SN12C renal
[41] = tested on: MCF7 breast
[42] = tested on: OVCAR-4 ovarian
[43] = tested on: T-47D breast
[44] = tested on: OVCAR-8 ovarian
[45] = tested on: PC-3 prostate
[46] = tested on: M14 melanoma
[47] = tested on: SK-MEL-5 melanoma

CN(C)C(=O)c1cc2cnc(Nc3ccc(N4CCNCC4)cn3)nc2n1C1CCCC1
GI50 [1]: 24.5 µM | TGI [1]: 55 µM | GI50 [2]: 27.3 µM | TGI [2]: > 100 µM | GI50 [3]: 13.8 µM | TGI [3]: > 100 µM | GI50 [4]: 37.5 µM | TGI [4]: > 66 µM | GI50 [5]: 47.6 µM | TGI [5]: > 69.7 µM | GI50 [6]: 16.8 µM | TGI [6]: 35.7 µM | GI50 [7]: 11.9 µM | TGI [7]: 57.4 µM | GI50 [8]: 29.5 µM | TGI [8]: 82.2 µM | GI50 [9]: 52.2 µM | TGI [9]: > 100 µM | GI50 [10]: 23.5 µM | TGI [10]: > 84.1 µM | GI50 [11]: 30.1 µM | TGI [11]: > 73 µM | GI50 [12]: > 59.3 µM | TGI [12]: > 100 µM | GI50 [13]: 0.866 µM | TGI [13]: 26.3 µM | GI50 [14]: 10.8 µM | TGI [14]: 29.7 µM | GI50 [15]: 16.7 µM | TGI [15]: 43.9 µM | GI50 [16]: 33.1 µM | TGI [16]: 61.7 µM | GI50 [17]: 23.1 µM | TGI [17]: 57.4 µM | GI50 [18]: 2.39 µM | TGI [18]: > 34.4 µM | GI50 [19]: 12.3 µM | TGI [19]: > 61.5 µM | GI50 [20]: 8.2 µM | TGI [20]: 63.6 µM | GI50 [21]: 0.73 µM | TGI [21]: 6.31 µM | GI50 [22]: > 67.7 µM | TGI [22]: > 100 µM | GI50 [23]: 29.2 µM | TGI [23]: > 100 µM | GI50 [24]: 8.83 µM | TGI [24]: 58.1 µM | GI50 [25]: 10.8 µM | TGI [25]: 85.3 µM | GI50 [26]: 24.8 µM | TGI [26]: 46.6 µM | GI50 [27]: > 100 µM | TGI [27]: > 100 µM | GI50 [28]: 24.9 µM | TGI [28]: > 51.6 µM | GI50 [29]: 5.81 µM | TGI [29]: 46.7 µM | GI50 [30]: > 80.2 µM | TGI [30]: > 100 µM | GI50 [31]: 25.3 µM | TGI [31]: 61.1 µM | GI50 [32]: 22.2 µM | TGI [32]: 68.2 µM | GI50 [33]: 7.55 µM | TGI [33]: 23.5 µM | GI50 [34]: 11.1 µM | TGI [34]: 31.2 µM | GI50 [35]: 18.2 µM | TGI [35]: > 63.7 µM | GI50 [36]: 17.5 µM | TGI [36]: 31 µM | GI50 [37]: 28.8 µM | TGI [37]: > 75.4 µM | GI50 [38]: 6.77 µM | TGI [38]: 36 µM | GI50 [39]: 9.02 µM | TGI [39]: > 65.6 µM | GI50 [40]: 20.3 µM | TGI [40]: > 73.2 µM | GI50 [41]: 23.3 µM | TGI [41]: 40.7 µM | GI50 [42]: 30.4 µM | TGI [42]: > 94 µM | GI50 [43]: 9.8 µM | TGI [43]: > 46.4 µM | GI50 [44]: 37.5 µM | TGI [44]: 74.9 µM | GI50 [45]: 17.8 µM | TGI [45]: > 80.5 µM | GI50 [46]: 30.2 µM | TGI [46]: > 89.2 µM | GI50 [47]: 28 µM | TGI [47]: > 97.1 µM
